{"source": "patent US6627635B2", "about": "“Method of preventing abuse of opioid dosage forms” (priority 1997, dated 2003)", "key": {"[1]": {"settings": "in comparison to a 15 mg dose of hydrocodone", "description": "In certain preferred embodiments, the opioid agonist is hydrocodone."}, "[2]": {"assay": "Simulated extractability of naltrexone HCl from hydrocodone bitartrate CR AcroContin tablets, 5 tablets in 5 mL solvent (HPLC recovery)", "assay_type": "physicochemical", "settings": "for % Precipitated: 5 tablets in 5 mL; for extractable from the tablets at the higher pH's: high pH (substantially greater than pH 10, preferably above pH 11)"}, "[3]": {"assay": "pKa values of the drug substances"}, "[4]": {"assay": "Simulated extractability of naltrexone HCl from hydrocodone bitartrate CR AcroContin tablets, 4 tablets in 25 mL solvent (HPLC recovery)", "settings": "for solubility in acetone: poor recoveries; for dissolution in the solvents: all of the solvents except acetone"}, "[5]": {"settings": "hydrochloride salt; cited from earlier work"}, "[6]": {"settings": "cited from earlier work"}, "[7]": {"settings": "after oral doses; cited from earlier work"}, "mu over delta sites": {"system": "mu over delta sites", "settings": "cited from earlier work"}, "[8]": {"assay": "Extractability of naltrexone HCl (1.5 mg) from oxycodone HCl (15 mg), 5 tablets/5 mL solvent", "assay_type": "physicochemical"}, "[9]": {"system": "effects of morphine-like opioid agonist", "settings": "cited from earlier work"}}}
{"compound": "COc1ccc2c3c1O[C@H]1[C@@H](O)C=C[C@H]4[C@@H](C2)N(C)CC[C@@]341", "note": "[Codeine]", "values": [{"measurement": "Equianalgesic Doses of Opioids, Calculated Dose", "setting": "[1]", "result": 90.0, "unit": "mg"}]}
{"compound": "COc1ccc2c3c1OC1C(=O)CC[C@H]4[C@@H](C2)N(C)CC[C@]314", "note": "(some centres unmarked) [Hydrocodone, 4,5-epoxy-3-methoxy-17-methylmorphinan-6-one]", "values": [{"measurement": "% Precipitated", "setting": "[2]; diluent pH 7.1", "result": 8, "unit": "%"}, {"measurement": "% Precipitated", "setting": "[2]; diluent pH 8.0", "result": 12, "unit": "%"}, {"measurement": "% Precipitated", "setting": "[2]; diluent pH 9.0", "result": 27, "unit": "%"}, {"measurement": "% Precipitated", "setting": "[2]; diluent pH 10.0", "result": 28, "unit": "%"}, {"measurement": "% Precipitated", "setting": "[2]; diluent pH 11.0", "result": 21, "unit": "%"}, {"measurement": "% Precipitated", "setting": "[2]; diluent pH 12.0", "result": 83, "unit": "%"}, {"measurement": "% Precipitated", "setting": "[2]; diluent pH 12.7", "result": 81, "unit": "%"}, {"measurement": "extractable from the tablets at the higher pH's", "setting": "[2]", "result": "about 80%"}, {"measurement": "Equianalgesic Doses of Opioids, Calculated Dose", "setting": "[1]", "result": 15.0, "unit": "mg"}, {"measurement": "pKa", "setting": "[3]; at amine functional group", "result": 9.2}, {"measurement": "solubility in acetone", "setting": "[4]", "result": "less soluble"}, {"measurement": "dissolution in the solvents", "setting": "[4]", "result": "dissolved completely"}]}
{"compound": "CN1CC[C@]23CCCC[C@H]2[C@H]1Cc1ccc(O)cc13", "note": "[Levorphanol]", "values": [{"measurement": "Equianalgesic Doses of Opioids, Calculated Dose", "setting": "[1]", "result": 1.8, "unit": "mg"}]}
{"compound": "CCC(=O)C(CC(C)N(C)C)(c1ccccc1)c1ccccc1", "note": "(centres unmarked) [Methadone]", "values": [{"measurement": "Equianalgesic Doses of Opioids, Calculated Dose", "setting": "[1]", "result": 9.0, "unit": "mg"}]}
{"compound": "O=C1CC[C@@]2(O)[C@H]3Cc4ccc(O)c5c4[C@@]2(CCN3CC2CC2)[C@H]1O5", "note": "[Naltrexone]", "values": [{"measurement": "extractable from the tablets at the higher pH's", "setting": "[2]", "result": "about 10%"}, {"measurement": "extractable from the tablets at the higher pH's", "setting": "[2]; listed as Naltrexone Hydrochloride", "result": "~10", "unit": "%"}, {"measurement": "soluble in water", "setting": "[5]", "result": "about 100 mg/cc"}, {"measurement": "protein binding", "setting": "[6]; in vivo", "result": "approximately 21%"}, {"measurement": "oral bioavailability", "setting": "[6]; oral", "result": "5-40%"}, {"measurement": "duration of action", "setting": "[7]", "result": "~24", "unit": "h"}, {"measurement": "blocking action, receptor preference", "setting": "mu over delta sites", "result": "strong preferential blocking action"}, {"measurement": "pKa", "setting": "[3]; at amine functional group", "result": 8.4}, {"measurement": "pKa", "setting": "[3]; at phenol functional group", "result": 10.3}, {"measurement": "solubility in acetone", "setting": "[4]", "result": "less soluble"}, {"measurement": "dissolution in the solvents", "setting": "[4]", "result": "dissolved completely"}]}
{"compound": "COc1ccc2c3c1O[C@H]1C(=O)CC[C@@]4(O)[C@@H](C2)N(C)CC[C@]314", "note": "[Oxycodone]", "values": [{"measurement": "% Precipitated", "setting": "[8]; diluent Ethanol", "result": 13, "unit": "%"}, {"measurement": "% Precipitated", "setting": "[8]; diluent IPA", "result": 86, "unit": "%"}, {"measurement": "% Precipitated", "setting": "[8]; diluent Methanol", "result": 13, "unit": "%"}, {"measurement": "% Precipitated", "setting": "[8]; diluent pH 6.9", "result": 6, "unit": "%"}, {"measurement": "% Precipitated", "setting": "[8]; diluent pH 8.1", "result": 87, "unit": "%"}, {"measurement": "% Precipitated", "setting": "[8]; diluent pH 9.4", "result": 98, "unit": "%"}, {"measurement": "% Precipitated", "setting": "[8]; diluent pH 10.2", "result": 98, "unit": "%"}, {"measurement": "% Precipitated", "setting": "[8]; diluent pH 11.0", "result": 98, "unit": "%"}, {"measurement": "% Precipitated", "setting": "[8]; diluent pH 11.9", "result": 98, "unit": "%"}, {"measurement": "% Precipitated", "setting": "[8]; diluent pH 12.8", "result": 98, "unit": "%"}, {"measurement": "Equianalgesic Doses of Opioids, Calculated Dose", "setting": "[1]", "result": 13.5, "unit": "mg"}]}
{"compound": "C[C@H]1[C@H]2Cc3ccc(O)cc3[C@]1(C)CCN2CC1CC1", "note": "[cyclazocine]", "values": [{"measurement": "duration of action", "setting": "[7]", "result": "~24", "unit": "h"}]}
{"compound": "C=CCN1CC[C@]23c4c5ccc(O)c4O[C@H]2C(=O)CC[C@@]3(O)[C@H]1C5", "note": "[naloxone]", "values": [{"measurement": "antagonism of morphine-like opioid agonist effects", "setting": "[9]; 0.4-0.8 mg intramuscularly or intravenously in man", "result": "prevent or promptly reverse the effects of morphine-like opioid agonist"}, {"measurement": "block of the effect of 25 mg of heroin", "setting": "[9]; one mg intravenously", "result": "completely block"}]}
{"compound": "Meperidine", "values": [{"measurement": "Equianalgesic Doses of Opioids, Calculated Dose", "setting": "[1]", "result": 135.0, "unit": "mg"}]}
